These results are taken from publication PMC10026756.

A word on the IC50: it is the concentration that inhibits the measured activity by half. As usually defined, the melting point is the temperature of the solid-liquid transition.

Each structure is given as a SMILES string.

The subject of data set [1] is HCT-116 colon cancer cell line. Kind of data set: MTT assay, in vitro cytotoxicity against HCT-116. Format: cell-based. As to conditions: Homo sapiens, HCT-116, MTT assay, read-out: IC50, in vitro cytotoxicity against HCT116 cell line. On the procedure: The target compounds were evaluated for their anticancer activity against HCT-116 colon cancer cell line in which both c-Met and VEGFR-2 are overexpressed.[54]^,[55] […] The half maximal inhibitory concentration (IC50) was calculated for each compound (Table 1).
To scrutinise the cytotoxicity of the target compounds on colorectal cancer and normal cells, MTT assay was carried out against HCT-116 and WI38 cell lines, respectively.
(In general: Tetrazolium dyes change colour on reduction, which living cells bring about.)

For data set [2], the target named is c-Met (Homo sapiens, UniProt P08581). Kind of data set: In vitro c-Met tyrosine kinase inhibition assay.
In data set [3] the target is VEGFR-2 (Homo sapiens, UniProt P35968). Nature of the data set: In vitro VEGFR-2 tyrosine kinase inhibition assay (BPS KDR Assay Kit).
VEGFR-2, sequence (P35968 20-1356): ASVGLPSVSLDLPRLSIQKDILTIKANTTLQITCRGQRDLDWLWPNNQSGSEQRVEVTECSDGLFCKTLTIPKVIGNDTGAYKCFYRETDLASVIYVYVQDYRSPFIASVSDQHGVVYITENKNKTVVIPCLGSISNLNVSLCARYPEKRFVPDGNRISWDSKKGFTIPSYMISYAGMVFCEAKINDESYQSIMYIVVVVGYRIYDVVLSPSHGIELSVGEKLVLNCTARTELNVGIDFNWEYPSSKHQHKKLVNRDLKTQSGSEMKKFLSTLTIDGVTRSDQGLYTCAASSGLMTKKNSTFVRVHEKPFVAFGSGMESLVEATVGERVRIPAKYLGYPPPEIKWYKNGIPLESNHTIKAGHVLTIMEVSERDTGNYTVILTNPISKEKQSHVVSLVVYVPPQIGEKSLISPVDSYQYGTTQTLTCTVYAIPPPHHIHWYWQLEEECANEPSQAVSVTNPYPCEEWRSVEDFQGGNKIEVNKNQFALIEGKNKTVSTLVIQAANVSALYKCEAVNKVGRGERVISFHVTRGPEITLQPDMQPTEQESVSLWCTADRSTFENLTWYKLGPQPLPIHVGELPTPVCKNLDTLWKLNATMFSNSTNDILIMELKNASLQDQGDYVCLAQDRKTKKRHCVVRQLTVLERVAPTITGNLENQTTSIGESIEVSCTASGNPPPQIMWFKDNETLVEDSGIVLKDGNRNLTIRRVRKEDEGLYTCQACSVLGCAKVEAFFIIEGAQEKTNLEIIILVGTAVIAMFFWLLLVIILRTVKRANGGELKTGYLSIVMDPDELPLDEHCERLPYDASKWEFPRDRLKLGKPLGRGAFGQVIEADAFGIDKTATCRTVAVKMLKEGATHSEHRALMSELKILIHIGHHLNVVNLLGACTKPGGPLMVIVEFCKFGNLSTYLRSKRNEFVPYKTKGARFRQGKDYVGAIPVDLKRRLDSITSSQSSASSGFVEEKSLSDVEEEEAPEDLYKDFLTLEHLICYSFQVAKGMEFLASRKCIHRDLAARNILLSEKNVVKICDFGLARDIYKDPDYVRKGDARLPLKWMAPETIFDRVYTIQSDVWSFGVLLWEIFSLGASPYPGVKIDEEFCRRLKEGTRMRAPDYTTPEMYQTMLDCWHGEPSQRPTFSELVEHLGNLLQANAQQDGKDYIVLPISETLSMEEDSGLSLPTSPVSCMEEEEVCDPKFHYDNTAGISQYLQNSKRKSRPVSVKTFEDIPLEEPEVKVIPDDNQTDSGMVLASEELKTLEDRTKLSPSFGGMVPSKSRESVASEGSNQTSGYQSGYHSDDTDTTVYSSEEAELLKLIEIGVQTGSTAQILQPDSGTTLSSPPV

c-Met, sequence (P08581 25-1390): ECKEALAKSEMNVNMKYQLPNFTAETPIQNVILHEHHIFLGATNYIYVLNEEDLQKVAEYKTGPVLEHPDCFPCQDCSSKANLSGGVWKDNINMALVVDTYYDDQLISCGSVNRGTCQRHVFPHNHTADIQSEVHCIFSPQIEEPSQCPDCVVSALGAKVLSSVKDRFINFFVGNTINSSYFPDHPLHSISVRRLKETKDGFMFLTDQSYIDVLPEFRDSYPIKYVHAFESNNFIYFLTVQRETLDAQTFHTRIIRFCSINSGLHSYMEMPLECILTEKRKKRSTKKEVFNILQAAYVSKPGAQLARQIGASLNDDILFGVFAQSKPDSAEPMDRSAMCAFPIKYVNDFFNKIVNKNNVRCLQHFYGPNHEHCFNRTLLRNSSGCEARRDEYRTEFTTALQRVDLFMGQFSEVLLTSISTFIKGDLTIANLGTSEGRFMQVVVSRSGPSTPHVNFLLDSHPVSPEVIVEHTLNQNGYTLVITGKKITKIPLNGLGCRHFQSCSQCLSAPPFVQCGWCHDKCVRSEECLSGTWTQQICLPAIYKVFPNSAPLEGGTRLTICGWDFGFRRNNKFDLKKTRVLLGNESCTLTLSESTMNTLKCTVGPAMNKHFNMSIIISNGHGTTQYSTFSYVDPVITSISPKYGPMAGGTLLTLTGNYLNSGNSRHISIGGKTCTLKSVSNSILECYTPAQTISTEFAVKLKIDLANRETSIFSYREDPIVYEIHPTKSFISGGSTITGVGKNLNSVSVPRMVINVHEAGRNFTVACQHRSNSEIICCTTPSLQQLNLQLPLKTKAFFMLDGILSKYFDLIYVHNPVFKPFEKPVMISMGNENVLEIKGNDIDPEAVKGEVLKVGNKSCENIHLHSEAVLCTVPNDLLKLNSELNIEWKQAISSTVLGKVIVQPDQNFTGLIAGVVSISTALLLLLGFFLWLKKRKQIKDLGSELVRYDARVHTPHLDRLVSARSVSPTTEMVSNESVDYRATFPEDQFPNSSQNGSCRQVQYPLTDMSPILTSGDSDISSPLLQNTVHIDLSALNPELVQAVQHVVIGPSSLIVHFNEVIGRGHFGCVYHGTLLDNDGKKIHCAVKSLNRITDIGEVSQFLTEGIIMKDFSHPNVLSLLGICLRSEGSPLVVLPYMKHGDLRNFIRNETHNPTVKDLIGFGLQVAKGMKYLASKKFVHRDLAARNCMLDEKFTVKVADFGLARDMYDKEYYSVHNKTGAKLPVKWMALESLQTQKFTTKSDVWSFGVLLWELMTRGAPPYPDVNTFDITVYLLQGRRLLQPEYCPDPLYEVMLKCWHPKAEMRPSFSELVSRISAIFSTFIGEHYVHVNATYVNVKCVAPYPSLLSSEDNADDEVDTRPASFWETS

Take `O=C(Cn1c(=O)[nH]c2ccccc2c1=O)Nc1ccccc1` [Compound 2a, 2-(2,4-Dioxo-1,4-dihydroquinazolin-3(2H)-yl)-N-phenylacetamide]: the IC50 in data set [1] came to 15.1 ± 0.8 µM.
The compound `O=C(Cn1c(=O)[nH]c2ccccc2c1=O)NCc1ccccc1` [Compound 2b, N-Benzyl-2-(2,4-dioxo-1,4-dihydroquinazolin-3(2H)-yl)acetamide] displayed a melting point of 298 to 299 °C. In data set [1], the IC50 was determined as 16 ± 0.85 µM.
As to `O=C(Cn1c(=O)[nH]c2ccccc2c1=O)NC1CCCCC1` [Compound 2c, N-Cyclohexyl-2-(2,4-dioxo-1,4-dihydroquinazolin-3(2H)-yl)acetamide], the IC50 in data set [1] worked out at 4.69 ± 0.25 µM; in data set [2], 0.084 ± 0.004 µM; in data set [3], 0.052 ± 0.002 µM. Moreover, the c-Met %inh in data set [2] (conc 0.01 (unit not given)) turned out to be 27.36%; in data set [2] (conc 0.1 (unit not given)), 55.94%; in data set [2] (conc 1 (unit not given)), 73.28%; in data set [2] (conc 10 (unit not given)), 92.28%. Further, the VEGFR-2 %inh came out at 35.32% in data set [3] (conc 0.01 (unit not given)), 56.18% in data set [3] (conc 0.1 (unit not given)), 76.46% in data set [3] (conc 1 (unit not given)) and 88.96% in data set [3] (conc 10 (unit not given)).
`CN(C)C(=O)Cn1c(=O)[nH]c2ccccc2c1=O` [Compound 2d, 2-(2,4-Dioxo-1,4-dihydroquinazolin-3(2H)-yl)-N,N-dimethylacetamide] displayed a melting point of 218 to 220 °C. The IC50 in data set [1] was 47.5 ± 2.51 µM.
On the same counts, the results for `O=C(Cn1c(=O)[nH]c2ccccc2c1=O)N1CCCCC1` [Compound 2e, 3-(2-Oxo-2-(piperidin-1-yl)ethyl)quinazoline-2,4(1H,3H)-dione] are 204 °C and 38 ± 2.01 µM.
For `CCOC(=O)CNC(=O)Cn1c(=O)[nH]c2ccccc2c1=O` [Compound 2g, Ethyl [2-(2,4-dioxo-1,4-dihydroquinazolin-3(2H)-yl)acetyl]glycinate], in data set [1], the IC50 is 12.5 ± 0.66 µM.
`NNC(=O)CNC(=O)Cn1c(=O)[nH]c2ccccc2c1=O` [Compound 3, 2-(2,4-Dioxo-1,4-dihydroquinazolin-3(2H)-yl)-N-(2-hydrazineyl-2-oxo-ethyl)acetamide]: the melting point lay within 296 to 298 °C. For the same compound, the IC50 in data set [1] was determined as 24.3 ± 1.28 µM.
Consider `O=C(Cn1c(=O)[nH]c2ccccc2c1=O)NCC(=O)N/N=C/c1ccco1` [Compound 4d, (E)-2-(2,4-Dioxo-1,4-dihydroquinazolin-3(2H)-yl)-N-[2-(2-[furan-2-ylmethylene]hydrazineyl)-2-oxoethyl]acetamide], for which the IC50 in data set [1] was found to be 10.8 ± 0.57 µM.
The same measure, in the same setting: the figure for `O=C(Cn1c(=O)[nH]c2ccccc2c1=O)NCC(=O)N/N=C1\C(=O)Nc2ccccc21` [Compound 4f, (Z)-2-[2,4-Dioxo-1,4-dihydroquinazolin-3(2H)-yl]-N-[2-oxo-2-(2-(2-oxoindolin-3-ylidene)hydrazineyl)ethyl]acetamide] is 44.1 ± 2.33 µM.
Take `O=C(Cn1c(=O)[nH]c2ccccc2c1=O)NCc1n[nH]c(=S)o1` [Compound 4h, 2-(2,4-Dioxo-1,4-dihydroquinazolin-3(2H)-yl)-N-[(5-thioxo-4,5-dihydro-1,3,4-oxadiazol-2-yl)methyl]acetamide]: the IC50 in data set [1] stood at 6.99 ± 0.37 µM; in data set [2], 0.245 ± 0.011 µM; in data set [3] it was 0.297 ± 0.013 µM. Besides, the c-Met %inh came out at 17.87% in data set [2] (conc 0.01 (unit not given)), 35.84% in data set [2] (conc 0.1 (unit not given)), 70.09% in data set [2] (conc 1 (unit not given)) and 86.83% in data set [2] (conc 10 (unit not given)). For the same compound, the VEGFR-2 %inh in data set [3] (conc 0.01 (unit not given)) is recorded as 18.58%; in data set [3] (conc 0.1 (unit not given)), 40.45%; in data set [3] (conc 1 (unit not given)), 60.74%; in data set [3] (conc 10 (unit not given)) it was 82.49%.
For `O=C(Cn1c(=O)[nH]c2ccccc2c1=O)NCc1n[nH]c(=S)n1-c1ccccc1` [Compound 4j, 2-(2,4-Dioxo-1,4-dihydroquinazolin-3(2H)-yl)-N-[(4-phenyl-5-thioxo-4,5-dihydro-1H-1,2,4-triazol-3-yl)methyl]acetamide], the IC50 in data set [1] stood at 18.9 ± 1 µM.
